pIC50: −log10 of the molar value.
Assays:
SSTR4 [1] = target: T1, SSTR4 (Homo sapiens (Human), UniProt P31391); assay: Inhibition of forskolin stimulated cAMP in CHO-K1 cells overexpressing SSTR4; format: cell-based; conditions: for EC50: read-out: SSTR4 Activity pEC50 (converted)
Procedure, shortened: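 Read-out is a HTRF LANCE Ultra cAMP competition using Eu-labelled streptavidin and biotin-cAMP, incubated 60 min at room temperature. It followed a 30 min room-temperature exposure of Kreb's Ringer-washed cells to compound plus forskolin. Potency is expressed as pEC50.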

SSTR4 [2] = target: T1, SSTR4; assay: SSTR4 I-125 somatostatin competition binding assay (membranes from CHO-K1 cells overexpressing SSTR4); conditions: competition with I-125 labeled somatostatin; for IC50: read-out: SSTR4 Binding pIC50 (converted)
Procedure: Membranes from CHO-K1 cells overexpressing SSTR4 are purchased from Perkin Elmer (catalog number ES-524-M400UA). Test compounds are suspended in DMSO and then diluted in assay buffer (25 mM HEPES pH 7.4, 10 mM MgCl2, 1 mM CaCl2), 0.5% BSA) plus 0.2 nM I-125 labeled somatostatin (Perkin Elmer catalog number NEX389). […] Then 1 μg of SSTR4 membranes in 50 μL assay buffer are added per well. The Plate is incubated for 60 minutes at room temperature. FilterMat A filters (Perkin Elmer catalog number 1450-421) are pre-soaked in 0.5% PEI (Sigma catalog number P3143). The contents of the assay plate are transferred to filters with a TomTech harvester and washed 5 times with 20 mM HEPES, 100 mM NaCl. The filters are dried in a microwave oven then transferred to sample bag containing a scintillator sheet (Perkin Elmer catalog number 1450-441). The scintillator sheets are melted to filters using a heat block. The filters are then read in a MicroBeta scintillation counter. Binding Ki curves are generated using Activity Base for Screening Data Management and the results are reported as pIC50.

SSTR1 = SSTR1 (Homo sapiens (Human), UniProt P30872); assay: SSTR1 I-125 somatostatin competition binding assay for selectivity versus SSTR4 (membranes from CHO-K1 cells overexpressing SSTR1); conditions: for SSTR1 Binding pIC50: competition with I-125 labeled somatostatin, CHO-K1 SSTR1 membranes;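 on all read-outs here: Filter-based radioligand binding, bound label counted by scintillation after 60 min incubation at room temperature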
Chain of SSTR1 (P30872 whole entry): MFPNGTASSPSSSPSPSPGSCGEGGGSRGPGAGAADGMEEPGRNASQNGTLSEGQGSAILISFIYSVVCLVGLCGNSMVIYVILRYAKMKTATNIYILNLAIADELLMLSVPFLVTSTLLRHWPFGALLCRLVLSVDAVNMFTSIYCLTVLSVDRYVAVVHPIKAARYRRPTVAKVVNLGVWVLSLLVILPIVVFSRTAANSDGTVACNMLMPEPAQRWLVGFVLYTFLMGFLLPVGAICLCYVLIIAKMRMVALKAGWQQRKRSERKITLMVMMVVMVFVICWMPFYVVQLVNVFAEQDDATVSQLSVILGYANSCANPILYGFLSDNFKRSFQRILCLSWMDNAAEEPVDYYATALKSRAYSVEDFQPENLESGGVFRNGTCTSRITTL
Procedure: Membranes from CHO-K1 cells overexpressing SSTR1 are purchased from Perkin Elmer (catalog number ES-520-M400UA). […] Then 10 μg of SSTR1 membranes in 50 μL assay buffer are added per well. The plate is incubated for 60 minutes at room temperature. […] The contents of the assay plate are transferred to filters with a TomTech harvester and washed 5 times with 20 mM HEPES, 100 mM NaCl. […] The scintillator sheets are melted to the filters using a heat block. The filters are then read in a MicroBeta scintillation counter. Binding Ki curves are generated using Activity Base for Screening Data Management and the results are reported as pIC50.

T1 sequence (P31391 whole entry): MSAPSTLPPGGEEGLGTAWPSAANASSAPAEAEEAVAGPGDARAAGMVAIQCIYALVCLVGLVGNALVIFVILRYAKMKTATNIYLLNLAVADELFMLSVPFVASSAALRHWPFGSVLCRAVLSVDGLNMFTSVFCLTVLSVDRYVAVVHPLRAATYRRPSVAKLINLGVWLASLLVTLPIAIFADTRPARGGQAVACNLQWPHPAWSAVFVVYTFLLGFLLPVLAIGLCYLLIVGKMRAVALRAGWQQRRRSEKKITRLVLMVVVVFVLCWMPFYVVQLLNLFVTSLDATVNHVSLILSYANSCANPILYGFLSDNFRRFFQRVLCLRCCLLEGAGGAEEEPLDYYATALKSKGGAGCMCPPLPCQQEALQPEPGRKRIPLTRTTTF

Row | EC50 (SSTR4 [1]) [nM] | IC50 (SSTR4 [2]) [nM] | pIC50 (SSTR1) | SSTR4 Activity pEC50 (SSTR4 [1]) | SSTR4 Binding pIC50 (SSTR4 [2]) | Structure (SMILES) | SSTR1 Binding pIC50 (SSTR1)
1 | 15.8 | 63.1 | 5.50 | – | – | CC[C@@H]1CN(C)CC[C@H]1NC(=O)C(C)(C)COc1ncc(C)cc1C (racemic) [Example 128, trans-3-((3,5-dimethylpyridin-2-yl)oxy)-N-(3-ethyl-1-methylpiperidin-4-yl)-2,2-dimethylpropanamide] | –
2 | 25.1 | 158 | 4.80 | – | – | Cc1ccccc1[C@@H]1CNCC[C@H]1OC(=O)C(C)(C)COc1ncccc1C(F)(F)F (racemic) [Example 168, trans-3-(o-tolyl)piperidin-4-yl 2,2-dimethyl-3-((3-(trifluoromethyl)pyridin-2-yl)oxy)propanoate] | –
3 | – | – | – | 7.6 | 6.0 | C[C@@H]1CN(CC#N)CC[C@H]1NC(=O)C(C)(C)COc1ncccc1OC(F)(F)F (relative stereo) [Example 184, trans-N-(1-(cyanomethyl)-3-methylpiperidin-4-yl)-2,2-dimethyl-3-((3-(trifluoromethoxy)pyridin-2-yl)oxy)propanamide] | –
4 | – | – | – | 8.1 | 7.6 | O=C(N[C@H]1CCNC[C@@H]1F)C(F)(F)COc1ncccc1OC(F)(F)F [Example 207, 2,2-difluoro-N-((3S,4S)-3-fluoropiperidin-4-yl)-3-((3-(trifluoromethoxy)pyridin-2-yl)oxy)propanamide] | –
5 | – | – | – | 7.7 | 7.0 | O=C(N[C@H]1CCNC[C@@H]1F)C(F)(F)COc1ncccc1C(F)(F)F [Example 197, 2,2-difluoro-N-((3S,4S)-3-fluoropiperidin-4-yl)-3-((3-(trifluoromethyl)pyridin-2-yl)oxy)propanamide] | –
6 | 158 | 794 | – | – | – | Cc1cccnc1OCC(F)(F)C(=O)N[C@@H]1CCN(C)C[C@H]1C (racemic) [Example 199, N-(trans-1,3-dimethylpiperidin-4-yl)-2,2-difluoro-3-((3-methylpyridin-2-yl)oxy)propanamide] | –
7 | – | – | – | 6.7 | 6.0 | CN1CCC(NC(=O)C(F)(F)COc2ccccc2Cl)CC1 [Example 215, 3-(2-chlorophenoxy)-2,2-difluoro-N-(1-methylpiperidin-4-yl)propanamide] | –
8 | 39.8 | 200 | – | – | – | Cc1ncccc1[C@@H]1CNCC[C@H]1OC(=O)C(C)(C)COc1ncccc1C(F)(F)F (racemic) [Example 170, trans-3-(2-methylpyridin-3-yl)piperidin-4-yl 2,2-dimethyl-3-((3-(trifluoromethyl)pyridin-2-yl)oxy)propanoate] | –
9 | – | – | – | 8.2 | 6.8 | Cc1cnc(OCC(C)(C)C(=O)N[C@@H]2CCNC[C@H]2F)c(C)c1 [Example 214, 3-((3,5-dimethylpyridin-2-yl)oxy)-N-((3R,4R)-3-fluoropiperidin-4-yl)-2,2-dimethylpropanamide] | –

The remaining lines, values behind:

Row | Structure (SMILES) | EC50 (SSTR4 [1]) [nM] | IC50 (SSTR4 [2]) [nM] | pIC50 (SSTR1) | SSTR4 Activity pEC50 (SSTR4 [1]) | SSTR4 Binding pIC50 (SSTR4 [2]) | SSTR1 Binding pIC50 (SSTR1)
10 | CN1CC[C@H](NC(=O)C(C)(C)COc2ccccc2Cl)[C@@H](F)C1 [Example 188, 3-(2-chlorophenoxy)-N-((3S,4S)-3-fluoro-1-methylpiperidin-4-yl)-2,2-dimethylpropanamide] | – | – | – | 8.2 | 7.6 | 5.0
11 | Cc1c([C@@H]2CN(C)C[C@H]2NC(=O)C(C)(C)COc2ncccc2C2CC2)cnn1C (relative stereo) [Example 27, trans-3-((3-cyclopropylpyridin-2-yl)oxy)-N-(4-(1,5-dimethyl-1H-pyrazol-4-yl)-1-methylpyrrolidin-3-yl)-2,2-dimethylpropanamide] | – | – | – | 8.9 | 7.6 | 6.9
12 | CN1CC[C@@H](NC(=O)C(C)(C)COc2ccccc2Br)C1 [Example 69, (R)-3-(2-bromophenoxy)-2,2-dimethyl-N-(1-methylpyrrolidin-3-yl)propanamide] | – | – | – | 8.4 | 7.2 | 5.2
13 | Cc1ccccc1[C@@H]1CNCC[C@H]1N(C)C(=O)C(C)(C)COc1ncccc1C(F)(F)F (relative stereo) [Example 155, N,2,2-trimethyl-N-(trans-3-(o-tolyl)piperidin-4-yl)-3-((3-(trifluoromethyl)pyridin-2-yl)oxy)propanamide] | – | – | – | 8.0 | 7.2 | 5.4
14 | CN1CC[C@H](NC(=O)C(C)(C)COc2ncccc2OC(F)(F)F)[C@H](c2ccccc2)C1 (relative stereo) [Example 166, 2,2-dimethyl-N-(cis-1-methyl-3-phenylpiperidin-4-yl)-3-((3-(trifluoromethoxy)pyridin-2-yl)oxy)propanamide] | – | – | – | – | 7.4 | 6.2
15 | C[C@@H]1CN(C)CC[C@H]1NC(=O)C(C)(C)COc1ncccc1OC(F)(F)F (single isomer, unassigned) [Example 108] | – | – | – | 6.8 | 6.1 | –
16 | C[C@@H]1CN(C)CC[C@H]1NC(=O)C(C)(C)COc1ncccc1OC(F)(F)F (single isomer, unassigned) [Example 13, trans-N-(1,3-dimethylpiperidin-4-yl)-2,2-dimethyl-3-((3-(trifluoromethoxy)pyridin-2-yl)oxy)propanamide] | – | – | – | 8.4 | 7.5 | –
17 | C[C@@H]1CN(C)CC[C@H]1NC(=O)C(C)(C)COc1ncccc1C(F)(F)F (relative stereo) [Example 109, trans-N-(1,3-dimethylpiperidin-4-yl)-2,2-dimethyl-3-((3-(trifluoromethyl)pyridin-2-yl)oxy)propanamide] | – | – | – | 8.0 | 7.0 | –
18 | C[C@H]1CN(C)CC[C@@H]1NC(=O)C(C)(C)COc1ncccc1C(F)(F)F [Example 105, N-((3S,4S)-1,3-dimethylpiperidin-4-yl)-2,2-dimethyl-3-((3-(trifluoromethyl)pyridin-2-yl)oxy)propanamide] | – | – | – | 8.1 | 7.2 | –
19 | CCOc1ccccc1OCC(C)(C)C(=O)NC1CCN(C)CC1 [Example 78, 3-(2-ethoxyphenoxy)-2,2-dimethyl-N-(1-methylpiperidin-4-yl)propanamide] | – | – | – | 7.4 | 6.7 | –
20 | Cc1cccnc1OCC(C)(C)C(=O)N[C@H]1CCN(C)C[C@@H]1F [Example 121, N-((3S,4S)-3-fluoro-1-methylpiperidin-4-yl)-2,2-dimethyl-3-((3-methylpyridin-2-yl)oxy)propanamide] | – | – | – | 6.9 | 6.6 | –
21 | CC[C@@H]1CN(C)CC[C@@H]1NC(=O)C(C)(C)COc1ncccc1C(F)(F)F (relative stereo) [Example 111, cis-N-(3-ethyl-1-methylpiperidin-4-yl)-2,2-dimethyl-3-((3-(trifluoromethyl)pyridin-2-yl)oxy)propanamide] | – | – | – | 7.7 | 6.7 | –
22 | CC[C@@H]1CN(C)CC[C@@H]1NC(=O)C(C)(C)COc1ncccc1OC(F)(F)F (relative stereo) [Example 116, N-(cis-3-ethyl-1-methylpiperidin-4-yl)-2,2-dimethyl-3-((3-(trifluoromethoxy)pyridin-2-yl)oxy)propanamide] | – | – | – | 7.5 | 6.2 | –
